# From patent US4912036A, “Rapid differentiation of bacteria using cyclic polypeptide antibiotics” (Eastman Kodak Company, priority 1986, dated 1990)
# Tests used:
# [1] = test system: P. vulgaris; test: RIND VII reduction solution assay, ΔOD 635 nm; type: cell-based, Proteus vulgaris; conditions: P. vulgaris 7 × 10^7 /ml, antibiotic 10^-4 molar
# Protocol: (§1) Bacterial suspensions were prepared by growing the cells in BHT broth to stationary phase overnight at 37° C. P. auruginosa was grown with agitation. About 40 ml of each overnight culture was centrifuged, decanted and washed once with 0.05 molar potassium phosphate buffer or 0.05 molar N-2-hydroxy-ethylpiperazine-N'-2-ethanesulfonic acid (HEPES) buffer, pH 7.8, and resuspended in buffer.
# TERGITOL 7 anionic surfactant was used to differentiate viable bacteria according to the prior art method. Various concentrations of TERGITOL 7 surfactant were mixed with a 10% glucose solution (50 μl), 3-(4,5-dimethyl-2-thiazolyl)-2,5-diphenyl-2N-tetrazolium bromide (MTT) (25 μl at 5 mg/ml methanol) or a RIND VII dispersion (1.5 ml) and phenazine methosulfate ETA (25 μl at 3 mg/ml methanol). The volume of each test solution was brought to 3 ml with potassium phosphate buffer. A cell suspension (100 μl at about 10^8 cells/ml) was then added. The solutions were incubated at 37° C. for 15 and 30 minutes in the presence of either E. coli, a gram(-) bacterium, or S. aureus, a gram(+) bacterium. The amount of dye formed was then determined visually, and graded as follows: "O" indicates no dye formation, +/- indicates faint dye formation, 1+ indicates light dye formation, 2+ indicates moderate dye formation, 3+ indicates strong dye formation, and 4+ indicates very strong dye formation. […]
# [2] = test system: E. coli; test: RIND XXIX reduction solution assay, Δ fluorescence; type: cell-based, Escherichia coli; conditions: E. coli (gram -) about 5×10^7 cells/ml, gramicidin S 0.1 mg/ml, 37° C.
# Protocol: as §1
# Dispersions containing RIND compounds were prepared by dissolving the RIND compound in N,N-dimethylformamide (DMF) at 16 mg compound per ml of solvent. An aliquot (250 μl) of the resulting solution was added to 500 μl of TRITON X-100 surfactant. This mixture was then added dropwise with stirring to 25 ml of 0.05 molar HEPES buffer. A dispersion of RIND XXIX was prepared similarly except that DMF was acidified with 0.1% sulfuric acid. Compositions containing water-compatible RIND compounds were prepared as described above except the surfactant was omitted.
# Each test solution contained the following: dispersion of RIND XXIX (25 μl) prepared as described above, glucose (400 μl of 10% aqueous solution), tryptose (400 μl of 10% aqueous solution), trimethyl-1,4-benzoquinone ETA (500 μl of 1.5 mg/ml methanol). Aliquots (200 μl) of the mixture were mixed with solutions of the antibiotics (50 μl). The cell suspensions (50 μl) were then added. The final concentration of gramcidin S and tyrocidin were 0.1 mg/ml and 3.3 mg/ml, respectively. The final cell concentration was about 5×10^7 cells/ml. Cell control solutions contained all reagents except antibiotics. Background controls consisted of both buffer and solution controls. […]
# The solutions were incubated at 37° C. for 30 minutes, and the change in fluorescence emission (Δ fluorescence) was determined as the difference between the readings taken when the solutions were first mixed and then after 30 minutes incubation. Measurements were made in a commercially available MICROFLUOR Reader (available from Dynatech Laboratories, Alexandria, Virginia, U.S.A.), modified with an excitation filter at 540 nm, an emission filter at 620 nm and a Xenon lamp. […]
# [3] = test system: K. pneumoniae; test: MTT reduction solution assay, ΔOD 540 nm; type: cell-based, Klebsiella pneumoniae; conditions: K. pneumoniae (-) 5×10^7, gramicidin S 0.00625 mg/ml, 37° C.
# Protocol: (§2) These examples illustrate the differentiation of bacteria using a tetrazolium salt and phenolic dye as the reducible compounds and two cyclic polypeptide antibiotics according to the present invention. The tetrazolium salt was 3-(4,5-dimethyl-2-thiazolyl) -2,5-diphenyl-2H-tetrazolium bromide (MTT) which forms a colored formazan dye when reduced. The phenolic dye was 2,6-dichloroindophenol (DCIP) which forms a colorless species when reduced.
# (§3) Solutions of the reducible compounds were prepared with the following: HEPES buffer (3 ml, 0.05 molar, pH 7.5), TRITON X-100 nonionic surfactant (1% concentration), glucose (50 μl of 10% in water), tryptose (50 μl of a 10% solution in water), MTT (25 μl of 5 mg/ml methanol) or DCIP (25 μl of 3 mg/ml methanol) and phenazine methosultate ETA (25 μl of 3 mg/ml methanol).
# (§4) Test solutions were prepared from the following: reducible compound solution from above (200 μl), 50 μl of either gramicidin S solution (6 mg/ml methanol and 9 ml of buffer) or tyrocidin solution (100 mg/ml methanol and 8 ml of buffer) and 50 μl of cell suspension. […] The change in optical density (ΔOD) was determined after 30 minutes at 37° C. at 540 nm for the MTT assay and at 620 nm for the DCIP assay using a commercially available spectrophotometer.
# [4] = test system: P. vulgaris; test: MTT reduction solution assay, ΔOD 540 nm; type: cell-based, Proteus vulgaris; conditions: P. vulgaris (-) 5×10^7, gramicidin S 0.00625 mg/ml, 37° C.
# Protocol: as §2, §3, §4
substance,measurement,setting,value
gramicidin S,Corrected ΔOD (15 Minutes),[1],> 2.0
same,Δ Fluorescence (30 Minutes),[2],> 4000
same,"ΔOD, 540 nm after 30 Minutes",[3],1.207
same,"ΔOD, 540 nm after 30 Minutes",[4],0.841
